Reference: patent EP4741383A1, “COMPOUND AND USE THEREOF AS ANTI-CANCER DRUG” (Tyligand Bioscience (Shanghai) Limited, priority 2023, dated 2025)

Key:
Format in all cases: biochemical
[1] = target: T1, Laforin (Homo sapiens, UniProt O95278); assay: Tyrosine phosphatase selectivity (pNPP substrate), Laforin; conditions: for IC50: Laforin, pNPP substrate; for IC50PTP/IC50SHP2 Laforin: selectivity ratio Laforin over SHP2
T1 construct: made in house; host or cells: E. coli
T1 sequence (O95278 1-331): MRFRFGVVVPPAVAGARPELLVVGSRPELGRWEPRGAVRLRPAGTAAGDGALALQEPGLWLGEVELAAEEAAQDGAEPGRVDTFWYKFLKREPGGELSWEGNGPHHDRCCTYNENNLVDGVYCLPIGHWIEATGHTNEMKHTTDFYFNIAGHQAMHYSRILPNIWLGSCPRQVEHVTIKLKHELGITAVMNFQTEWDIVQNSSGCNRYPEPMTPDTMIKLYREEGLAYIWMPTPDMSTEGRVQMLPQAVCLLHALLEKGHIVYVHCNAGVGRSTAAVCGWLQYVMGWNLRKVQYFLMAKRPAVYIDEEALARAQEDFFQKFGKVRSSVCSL
Protocol: (§1) This experiment evaluated the selectivity of the disclosed compounds against tyrosine phosphatases, including SHP1, HePTP, Laforin, LMWPTP, LYP, PTP1B, PRL2, SSU72, VHR, FAP1, STEP, CDC14A, CD45, MEG2, and PP5, all expressed and purified from E. coli.
(§2) Phosphatase activity was measured using p-nitrophenyl phosphate (pNPP) (Fisher Scientific) as the substrate in 50 mM 3,3-dimethylglutaric acid buffer (pH 7.0, containing 1 mM EDTA), with ionic strength adjusted to 0.15 M with NaCl. […] After 10-60 minutes, the reaction was quenched by adding 20 µL of 5 N NaOH. Wells without enzyme were used as controls for correction. The amount of the product, p-nitrophenol, was determined by measuring the absorbance at 405 nm using a Spectra MAX340 microplate spectrophotometer (Molecular Devices), with a molar extinction coefficient of 18000 M^-1cm^-1.
(§3) Data were analyzed using GraphPad Prism software. Dose-response curves were obtained by fitting data using the nonlinear S-curve regression Dose-response-inhibition equation, and IC50 values were calculated.

[2] = target: T2, LMWPTP (Homo sapiens, UniProt P24666); assay: Tyrosine phosphatase selectivity (pNPP substrate), LMWPTP; conditions: for IC50: LMPTP*, pNPP substrate; for IC50PTP/IC50SHP2 LMPTP*: selectivity ratio LMPTP* over SHP2
T2 construct: made in house; host or cells: E. coli
T2 sequence (P24666 1-158): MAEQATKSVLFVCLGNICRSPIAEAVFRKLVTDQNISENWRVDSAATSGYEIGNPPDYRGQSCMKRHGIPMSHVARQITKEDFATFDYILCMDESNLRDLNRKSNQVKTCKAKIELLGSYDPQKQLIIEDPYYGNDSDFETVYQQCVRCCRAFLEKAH
Protocol: as §1, §2, §3

[3] = target: T3, PTP1B (Homo sapiens, UniProt P18031); assay: Tyrosine phosphatase selectivity (pNPP substrate), PTP1B; conditions: for IC50: PTP1B, pNPP substrate; for IC50PTP/IC50SHP2 PTP1B: selectivity ratio PTP1B over SHP2
T3 construct: made in house; host or cells: E. coli
T3 sequence (P18031 1-435): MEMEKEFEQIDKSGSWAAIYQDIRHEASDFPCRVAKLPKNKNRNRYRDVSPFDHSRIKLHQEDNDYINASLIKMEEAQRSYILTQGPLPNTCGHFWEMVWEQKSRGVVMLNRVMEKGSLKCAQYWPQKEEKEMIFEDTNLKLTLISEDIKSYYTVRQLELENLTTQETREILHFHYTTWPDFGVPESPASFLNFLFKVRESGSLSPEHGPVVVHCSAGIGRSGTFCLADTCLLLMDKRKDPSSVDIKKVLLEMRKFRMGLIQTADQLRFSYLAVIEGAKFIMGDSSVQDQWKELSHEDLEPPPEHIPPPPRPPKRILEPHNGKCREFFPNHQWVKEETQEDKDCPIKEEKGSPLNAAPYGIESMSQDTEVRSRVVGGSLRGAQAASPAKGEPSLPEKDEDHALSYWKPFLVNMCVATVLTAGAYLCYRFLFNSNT
Protocol: as §1, §2, §3

[4] = target: T4, PRL2 (Homo sapiens, UniProt Q12974); assay: Tyrosine phosphatase selectivity (pNPP substrate), PRL2; conditions: for IC50: PRL2, pNPP substrate; for IC50PTP/IC50SHP2 PRL2: selectivity ratio PRL2 over SHP2
T4 construct: made in house; host or cells: E. coli
T4 sequence (Q12974 1-167): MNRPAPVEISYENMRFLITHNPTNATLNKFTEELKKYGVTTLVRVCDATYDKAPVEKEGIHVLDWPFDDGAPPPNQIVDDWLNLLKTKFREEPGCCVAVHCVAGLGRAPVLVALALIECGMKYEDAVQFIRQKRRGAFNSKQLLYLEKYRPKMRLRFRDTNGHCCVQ
Protocol: as §1, §2, §3

[5] = target: T5, VHR (Homo sapiens, UniProt P51452); assay: Tyrosine phosphatase selectivity (pNPP substrate), VHR; conditions: for IC50: VHR, pNPP substrate; for IC50PTP/IC50SHP2 VHR: selectivity ratio VHR over SHP2
T5 construct: made in house; host or cells: E. coli
T5 sequence (P51452 whole entry, species assumed): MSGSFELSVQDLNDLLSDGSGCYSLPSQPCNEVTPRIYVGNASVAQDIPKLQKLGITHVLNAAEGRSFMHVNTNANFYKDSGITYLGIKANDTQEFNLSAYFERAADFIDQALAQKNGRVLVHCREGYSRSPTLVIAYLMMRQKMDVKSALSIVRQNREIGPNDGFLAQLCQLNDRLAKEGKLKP
Protocol: as §1, §2, §3

[6] = target: T6, FAP1 (Homo sapiens, UniProt Q12923); assay: Tyrosine phosphatase selectivity (pNPP substrate), FAP1; conditions: FAP1, pNPP substrate
T6 sequence (Q12923 2163-2477): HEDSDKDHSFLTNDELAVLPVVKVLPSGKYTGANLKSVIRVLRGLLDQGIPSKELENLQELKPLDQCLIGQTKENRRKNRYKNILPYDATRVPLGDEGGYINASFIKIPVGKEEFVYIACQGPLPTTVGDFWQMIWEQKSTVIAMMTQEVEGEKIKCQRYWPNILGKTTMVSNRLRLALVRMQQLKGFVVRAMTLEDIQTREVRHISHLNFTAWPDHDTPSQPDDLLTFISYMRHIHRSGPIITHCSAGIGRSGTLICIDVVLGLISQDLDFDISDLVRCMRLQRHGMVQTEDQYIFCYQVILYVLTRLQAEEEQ
Protocol: as §1, §2, §3

[7] = target: T7, PP5 (Homo sapiens, UniProt P53041); assay: Tyrosine phosphatase selectivity (pNPP substrate), PP5; conditions: for IC50: PP5, pNPP substrate; for IC50PTP/IC50SHP2 PP5: selectivity ratio PP5 over SHP2
T7 construct: made in house; host or cells: E. coli
T7 sequence (P53041 1-499): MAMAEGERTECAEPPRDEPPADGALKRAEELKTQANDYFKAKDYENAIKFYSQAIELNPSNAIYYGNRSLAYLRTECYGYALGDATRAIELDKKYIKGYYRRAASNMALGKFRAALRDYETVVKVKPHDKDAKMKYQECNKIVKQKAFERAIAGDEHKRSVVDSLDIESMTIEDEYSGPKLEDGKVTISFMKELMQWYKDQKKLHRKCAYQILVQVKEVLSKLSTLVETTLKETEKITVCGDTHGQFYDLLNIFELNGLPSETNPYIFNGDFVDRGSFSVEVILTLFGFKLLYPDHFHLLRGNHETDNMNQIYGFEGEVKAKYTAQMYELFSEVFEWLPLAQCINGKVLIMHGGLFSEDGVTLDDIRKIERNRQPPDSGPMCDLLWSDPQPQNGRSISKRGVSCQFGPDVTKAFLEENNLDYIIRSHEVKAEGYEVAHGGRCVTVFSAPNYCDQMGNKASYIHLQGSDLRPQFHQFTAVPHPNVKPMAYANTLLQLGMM
Protocol: as §1, §2, §3

IC50 [1] | IC50PTP/IC50SHP2 Laforin [1] | IC50 [2] | IC50PTP/IC50SHP2 LMPTP* [2] | IC50 [3] | IC50PTP/IC50SHP2 PTP1B [3] | IC50 [4] | IC50PTP/IC50SHP2 PRL2 [4] | IC50 [5] | IC50PTP/IC50SHP2 VHR [5] | IC50 [6] | IC50 [7] | IC50PTP/IC50SHP2 PP5 [7] | SMILES
> 20 µM | 769.2 | > 20 µM | 769.2 | 4.7 µM | 180.8 | > 50 µM | 1923.1 | 9.9 µM | 380.8 | 11 µM | > 50 µM | 1923.1 | O=C(Nc1ccc(-c2ccsc2)cc1)C(=O)Nc1ccc(-c2cc3cnc(-c4nnn[nH]4)nc3n2C2CCC2)cc1 [Example 131]
> 20 µM | 740.7 | > 20 µM | 740.7 | 2.7 µM | 100 | > 50 µM | 1851.9 | 10.3 µM | 381.5 | 13.5 µM | > 50 µM | 1851.9 | O=C(Nc1ccc(-c2ccsc2)cc1)C(=O)Nc1ccc(-c2cc3cc(F)c(-c4nnn[nH]4)nc3n2C2CCC2)cc1 [Example 132]
